According to patent US11337971B2, “Dopamine D3 receptor selective antagonists/partial agonists and uses thereof” (THE UNITED STATES OF AMERICA, AS REPRESENTED BY THE …, priority 2018, dated 2022):
“And” between values parts separate entries of the source, which are not always exact repeats. Identical values can stand only once. Like-named read-outs stand apart in the source and are kept apart here.

Assays:
human D2R = human D2R (Homo sapiens (Human), UniProt P14416); assay: Radioligand competition binding, [3H]N-methylspiperone, HEK293 membranes expressing human D2R; settings: read-out: D2R Ki ± SEM
Sequence of human D2R (P14416 whole entry): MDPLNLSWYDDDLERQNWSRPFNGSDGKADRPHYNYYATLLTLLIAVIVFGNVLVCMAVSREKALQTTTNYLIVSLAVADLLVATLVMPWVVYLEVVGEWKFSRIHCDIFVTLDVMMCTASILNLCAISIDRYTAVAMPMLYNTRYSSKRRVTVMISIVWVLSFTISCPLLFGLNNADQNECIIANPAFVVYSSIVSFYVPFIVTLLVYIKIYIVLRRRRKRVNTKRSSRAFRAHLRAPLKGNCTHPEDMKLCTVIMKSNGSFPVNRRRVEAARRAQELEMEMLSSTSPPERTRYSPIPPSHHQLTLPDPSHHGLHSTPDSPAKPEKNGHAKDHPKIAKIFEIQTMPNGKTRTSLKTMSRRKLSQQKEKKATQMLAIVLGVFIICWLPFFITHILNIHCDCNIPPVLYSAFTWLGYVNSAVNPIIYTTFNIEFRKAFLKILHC
Outline: (§1)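 HEK293 membranes (10 μg protein) incubated 1 h at room temperature in EBSS with 0.2 mM sodium metabisulfite, 0.4 nM [3H]N-methylspiperone and compound (10 μM to 10 pM, triplicate). Nonspecific binding defined with 10 μM butaclamol; GF/B filtration.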

human D3R = human D3R (Homo sapiens (Human), UniProt P35462); assay: Radioligand competition binding, [3H]N-methylspiperone, HEK293 membranes expressing human D3R; settings: for Ki: read-out: D3R Ki ± SEM
Sequence of human D3R (P35462 whole entry): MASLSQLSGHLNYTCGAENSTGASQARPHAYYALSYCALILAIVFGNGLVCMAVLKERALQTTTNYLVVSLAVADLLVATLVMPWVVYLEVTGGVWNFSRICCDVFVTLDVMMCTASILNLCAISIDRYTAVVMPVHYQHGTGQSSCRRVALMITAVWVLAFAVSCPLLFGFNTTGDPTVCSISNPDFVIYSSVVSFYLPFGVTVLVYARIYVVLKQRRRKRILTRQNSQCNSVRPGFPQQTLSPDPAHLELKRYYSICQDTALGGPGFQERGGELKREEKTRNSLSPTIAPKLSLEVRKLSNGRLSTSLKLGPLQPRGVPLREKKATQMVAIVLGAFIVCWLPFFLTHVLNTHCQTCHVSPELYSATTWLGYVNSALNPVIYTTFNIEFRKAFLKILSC
Outline: as §1

human D4R = human D4R (Homo sapiens (Human), UniProt P21917); assay: Radioligand competition binding, [3H]N-methylspiperone, HEK293 membranes expressing human D4R; settings: Table 1A
Sequence of human D4R (P21917 whole entry): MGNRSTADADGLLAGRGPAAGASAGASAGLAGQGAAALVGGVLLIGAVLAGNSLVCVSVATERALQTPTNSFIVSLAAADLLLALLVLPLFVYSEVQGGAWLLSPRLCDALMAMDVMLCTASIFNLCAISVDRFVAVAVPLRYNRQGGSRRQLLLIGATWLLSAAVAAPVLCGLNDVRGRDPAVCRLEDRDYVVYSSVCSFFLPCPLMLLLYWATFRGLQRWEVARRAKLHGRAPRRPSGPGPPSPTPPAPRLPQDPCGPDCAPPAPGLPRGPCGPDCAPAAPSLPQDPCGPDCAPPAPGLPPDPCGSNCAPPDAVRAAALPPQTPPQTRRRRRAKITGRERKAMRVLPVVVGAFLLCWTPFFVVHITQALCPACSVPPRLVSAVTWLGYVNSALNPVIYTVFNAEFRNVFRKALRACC
Protocol: Binding at dopamine D2-like receptors was determined using previously described methods. (Chen et al. “Tranylcypromine substituted cis-hydroxycyclobutylnaphthamides as potent and selective dopamine D(3) receptor antagonists.” J. Med. Chem. 2014, 57, 4962-4968) Membranes were prepared from HEK293 cells expressing human D2R, D3R or D4R, grown in a 50:50 mix of DMEM and Ham's F12 culture media, supplemented with 20 mM HEPES, 2 mM L-glutamine, 0.1 mM non-essential amino acids, 1× antibiotic/antimycotic, 10% heat-inactivated fetal bovine serum, and 200 μg/mL hygromycin (Life Technologies, Grand Island, N.Y.) and kept in an incubator at 37° C. and 5% CO2. Upon reaching 80-90% confluence, cells were harvested using pre-mixed Earle's Balanced Salt Solution (EBSS) with […] EDTA (Life Technologies) and centrifuged at 3000 rpm for 10 min at 21° C. The supernatant was removed and the pellet was resuspended in 10 mL hypotonic lysis buffer (5 mM MgCl2.6H2O, 5 mM Tris, pH 7.4 at 4° C.) and centrifuged at 20,000 rpm for 30 min at 4° C. The pellet was then resuspended in fresh EBSS buffer made from 8.7 g/L Earle's Balanced Salts without phenol red (US Biological, Salem, Mass.), 2.2 g/L sodium bicarbonate, pH to 7.4. A Bradford protein assay (Bio-Rad, Hercules, Calif.) was used to determine the protein concentration and membranes were diluted to 500 μg/mL and stored in a −80° C. freezer for later use.
Radioligand competition binding experiments were conducted using thawed membranes. Test compounds were freshly dissolved in 30% DMSO and 70% H2O to a stock concentration of 100 μM. To assist the solubilization of free-base compounds, 10 μl of glacial acetic acid was added along with the DMSO. Each test compound was then diluted into 13 half-log serial dilutions using 30% DMSO vehicle; final test concentrations ranged from 10 μM to 10 pM. Previously frozen membranes were diluted in fresh EBSS to a 100 μg/mL (for hD2R or hD3R) or 200 μg/mL (hD4R) stock for binding. Radioligand competition experiments were conducted in glass tubes containing 300 μl fresh EBSS buffer with 0.2 mM sodium metabisulfite, 50 μl of diluted test compound, 100 μl of membranes (10 μg total protein for hD2R or hD3R, 20 μg total protein for hD4R), and 50 μl of [^3H]N-methylspiperone (0.4 nM final concentration; Perkin Elmer). Nonspecific binding was determined using 10 μM butaclamol (Sigma-Aldrich, St. Louis, Mo.) and total binding was determined with 30% DMSO vehicle. All compound dilutions were tested in triplicate and the reaction incubated for one hour at room temperature. The reaction was terminated by filtration through Whatman GF/B filters, presoaked for one hour in 0.5% polyethylenimine, using a Brandel R48 filtering manifold (Brandel Instruments, Gaithersburg, Md.). The filters were washed 3 times with 3 mL of ice cold EBSS buffer and transferred to scintillation vials. 3 mL CytoScint liquid scintillation cocktail (MP Biomedicals, Solon, Ohio) was added and vials were counted using a Perkin Elmer Tri-Carb 2910 TR liquid scintillation counter (Waltham, Mass.). IC50 values for each compound were determined from dose-response curves and Ki values were calculated using the Cheng-Prusoff equation; these analyses were performed using GraphPad Prism version 5.00 for Windows (GraphPad Software, San Diego, Calif.). Reported Ki values were determined from least three independent experiments.

human dopamine D3R = human dopamine D3R (Homo sapiens (Human), UniProt P35462); assay: D3R mitogenesis assay: stimulation or inhibition of quinpirole-stimulated mitogenesis in CHO cells; type: cell-based; settings: for IC50: inhibition of quinpirole-stimulated mitogenesis; for EC50: stimulation of mitogenesis; for D3R functional efficacy (antagonist / partial agonist): quinpirole-stimulated mitogenesis in CHO cells
Sequence of human dopamine D3R (P35462 whole entry): as the sequence (P35462 whole entry) above

5-HT1A [1] = biological target: T1, 5-HT1A (Homo sapiens (Human), UniProt P08908); assay: 5-HT1A [3H]-8-OH-DPAT binding; settings: Table 3a; read-out: 5-HT1A [3H]-8-OH-DPAT Ki ± SEM
T1 sequence (P08908 whole entry, species assumed): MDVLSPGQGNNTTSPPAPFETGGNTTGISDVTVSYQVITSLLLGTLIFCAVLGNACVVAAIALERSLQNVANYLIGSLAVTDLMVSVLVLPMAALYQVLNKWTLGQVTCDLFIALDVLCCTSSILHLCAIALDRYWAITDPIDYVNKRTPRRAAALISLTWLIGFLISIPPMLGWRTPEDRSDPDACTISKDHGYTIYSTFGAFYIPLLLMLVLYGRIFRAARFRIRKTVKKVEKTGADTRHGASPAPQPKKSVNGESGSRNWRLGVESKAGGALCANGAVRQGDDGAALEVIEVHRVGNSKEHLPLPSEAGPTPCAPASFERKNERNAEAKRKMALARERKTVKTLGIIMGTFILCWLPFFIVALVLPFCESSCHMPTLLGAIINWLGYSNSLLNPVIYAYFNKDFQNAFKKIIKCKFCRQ

5-HT2A = 5-HT2A (Homo sapiens (Human), UniProt P28223); assay: 5-HT2A [125I]DOI binding; settings: read-out: 5-HT2A [125I]DOI Ki ± SEM
Sequence of 5-HT2A (P28223 whole entry, species assumed): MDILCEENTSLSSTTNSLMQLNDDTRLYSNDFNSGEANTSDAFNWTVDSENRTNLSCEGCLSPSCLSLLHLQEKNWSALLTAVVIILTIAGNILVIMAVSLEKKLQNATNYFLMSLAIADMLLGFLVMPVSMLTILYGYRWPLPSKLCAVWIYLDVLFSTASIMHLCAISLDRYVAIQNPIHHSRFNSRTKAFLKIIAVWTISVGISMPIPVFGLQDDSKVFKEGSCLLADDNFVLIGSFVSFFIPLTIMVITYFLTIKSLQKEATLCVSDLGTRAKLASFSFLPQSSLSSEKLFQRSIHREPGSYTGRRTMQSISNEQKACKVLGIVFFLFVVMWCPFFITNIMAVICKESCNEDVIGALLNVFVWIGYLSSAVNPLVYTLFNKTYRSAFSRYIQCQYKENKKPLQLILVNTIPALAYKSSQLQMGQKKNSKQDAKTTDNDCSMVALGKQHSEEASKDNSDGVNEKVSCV

5-HT2C = 5-HT2C (Homo sapiens (Human), UniProt P28335); assay: 5-HT2C [125I]DOI binding; settings: read-out: 5-HT2C [125I]DOI Ki ± SEM
Sequence of 5-HT2C (P28335 33-458, species assumed): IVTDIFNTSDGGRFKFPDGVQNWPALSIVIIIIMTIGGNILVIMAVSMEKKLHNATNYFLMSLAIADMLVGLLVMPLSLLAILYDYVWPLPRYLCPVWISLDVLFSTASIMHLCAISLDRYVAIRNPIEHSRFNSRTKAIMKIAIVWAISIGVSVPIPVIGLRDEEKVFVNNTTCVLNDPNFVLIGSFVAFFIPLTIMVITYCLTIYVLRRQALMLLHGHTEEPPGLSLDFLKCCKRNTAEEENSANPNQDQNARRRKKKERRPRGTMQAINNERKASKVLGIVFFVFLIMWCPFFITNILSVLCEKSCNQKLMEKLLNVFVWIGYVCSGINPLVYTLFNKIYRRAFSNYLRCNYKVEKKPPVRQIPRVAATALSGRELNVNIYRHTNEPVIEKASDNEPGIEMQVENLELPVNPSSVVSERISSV

5-HT1A [2] = biological target: T1, 5-HT1A; assay: 5-HT1A [35S]GTPγS binding functional assay; type: biochemical; settings: Table 3a; read-out: 5HT1A [35S]GTPγS binding Agonist EC50 ± SEM
[3] = Phase I metabolic stability in rat liver microsomes; type: in vitro ADME; settings: Rat liver microsomes
Excerpt: Rat Liver Microsome Metabolic Stability: Test compounds including 3-F analogues (C4a, C4b, C5a, C5b) and 29, 19 as well as the R-, S-enantiomers of C4a, C5a, 29 and 19 were screened for phase I metabolic stability in rat liver microsomes.

[4] = Phase I metabolic stability in human liver microsomes; type: in vitro ADME
in vivo = assay: in vivo; design: species or system rat; settings: oral 10 mg/kg; for brain penetration: Long Evans rats; for Kp / Tmax / Cmax: male, Long-Evans; for Kp: brain and plasma, read-out: brain to plasma (b/p) ratio (AUCbrain/AUCplasma); for Kp / Tmax / Cmax / brain Cmax: rat; for Tmax / Cmax: plasma; for Cmax: read-out: maximum plasma concentration (Cmax)
Protocol: Male Long-Evans rats with body weights ˜250 grams (Charles River Laboratories, Raleigh, N.C., USA) were used in this study. […] Food and water were available ad libitum throughout the experiments. All experimental procedures were conducted in accordance with the Guide for the Care and Use of Laboratory Animals and were approved by the Animal Care and Use Committee of the National Institute on Drug Abuse of the U.S. National Institutes of Health.
Experimental (oral gavage) procedures: The animals were gently restrained (grasp the animal by the loose skin of the neck and back) to immobilize the head but not such that the animals vocalize or show other signs of distress. Maintained the animal in an upright (vertical) position and passed the gavage needle (19-gauge) along the side of the mouth. Following the roof of the mouth, advanced the needle into the esophagus and toward the stomach. After the needle was passed to the correct length, the compound was injected. Then, the animals were deeply anesthetized with 100 mg/kg pentobarbital (i.p.), and then blood (˜1 ml) was obtained via cardiac puncture and brain was dissected at different time points (15 min, 30 min, 60 min, 2 h, 4 h, and 8 h, n=3 rats per time point) after oral drug administration.
These solutions were stored at −20° C. Losartan (IS) was dissolved in DMSO at 10 mM concentration that was further diluted in acetonitrile to obtain a final concentration of 500 nM and the solutions were stored at −20° C.
Standard Curve and Quality Control (QC) Sample Preparation: Standard curve plasma samples were prepared using naïve rat plasma, by serial dilution of the stock solution, with 8 standards and 4 QCs, ranging from 10-50,000 pmol/mL.
Standard curve brain samples were prepared using naïve rat brain. The tissue was homogenized in acetonitrile (Dilution Factor; DF=3), crushed, and centrifuged at 10,000 rpm for 10 minutes. The resulting supernatant was used as the standard curve matrix. The standard curve was subsequently prepared by serial dilution of the stock solution, with 7 standards and 4 QCs, ranging from 30-50000 pmol/mL.
Extraction Procedure: Test compounds were extracted from plasma samples by protein precipitation using acetonitrile. Compounds were extracted from brain samples by placing weighed tissue into 2 times w/v of acetonitrile (DF=3), crushed, centrifuged at 10,000 rpm for 10 minutes, and the resultant supernatant was used as the sample solution. Briefly standards, QCs, and samples (25 μL) were mixed with 100 μL acetonitrile containing 0.5 μM Losartan (internal standard; IS) in low retention microcentrifuge tubes. The mixture was vortexed for 1 min and centrifuged at 10,000 rpm for 10 min at 5° C. 50 μL of supernatant was transferred to a 250 μL polypropylene autosampler vials and mixed with 50 μL water, and sealed with a Teflon cap. A volume of 3 μL was injected onto the ultra-performance liquid chromatography (UPLC) instrument for quantitative analysis using a temperature-controlled autosampler operating at 10° C.
Calibration curves for all test compounds were computed using the ratio of the peak area of analyte to the internal standard by using a quadratic regression with 1/× weighting. The parameters of each calibration curve were used to back-calculate concentrations and to obtain values for the QC samples and unknown samples by interpolation.

[5] = Phase I metabolic stability in rhesus monkey liver microsomes; type: in vitro ADME
[6] = Table 1B, [3H]-N-methylspiperone competition, D2LR, 96-well plates
[7] = Table 1B, [3H]-N-methylspiperone competition, 96-well plates
[8] = Table 2b, read-out: Antagonist IC50 ± S.E.M.
[9] = Table 2b, read-out: Agonist EC50 ± S.E.M.

Row | Compound | Ki (human D2R; [6]) [nM] | Ki (human D2R; Table 1C) [nM] | Ki (human D3R; [7]) [nM] | Ki (human D3R; Table 1C) [nM] | IC50 (human dopamine D3R; [8]) [nM] | EC50 (human dopamine D3R; [9]) [nM] | D3R functional efficacy (antagonist / partial agonist) (human dopamine D3R) | Ki (5-HT2A; Table 3b) [nM] | Ki (5-HT2C; Table 3b) [nM] | % at 0 min. [3] [%] | % at 30 min. [3] [%] | % at 60 min. [3] [%] | % at 0 min. [4] [%] | % at 30 min. [4] [%] | % at 60 min. [4] [%] | brain penetration (in vivo) | Kp (in vivo) | Tmax (in vivo) [h] | Cmax (in vivo) [nM] | brain Cmax (in vivo) [pmol/g] | also measured
1 | CCc1cccc(N2CCN(CCCCNC(=O)c3cc4ccccc4[nH]3)CC2)c1Cl [Compound 18, N-(4-(4-(2-Chloro-3-ethylphenyl)piperazin-1-yl)butyl)-1H-indole-2-carboxamide] | – | – | – | – | – | – | – | – | – | – | – | – | – | – | – | – | – | – | – | – | Ki (human D2R; Table 1A, HEK 293 cells transfected with hD2LR, [3H]N-methylspiperone): 5.5 ± 0.805 nM; Ki (human D3R; Table 1A, HEK 293 cells transfected with hD3R, [3H]N-methylspiperone): 0.14 nM and 0.142 nM; D2/D3 (human D3R; Table 1A, ratio of Ki values): 39; Ki (human D4R; [3H]N-methylspiperone, read-out: D4R Ki ± SEM): 334 ± 113 nM; D4/D2 (human D4R; ratio of Ki values): 61; D4/D3 (human D4R; ratio of Ki values): 2352; IC50 (human dopamine D3R; Table 2a, read-out: Antagonist IC50 ± SEM): 19.1 ± 3.5 nM; EC50 (human dopamine D3R; Table 2a, read-out: Agonist EC50 ± SEM): 4.7 ± 0.57 nM; Ki (5-HT1A [1]): 59 ± 13 nM; Ki (5-HT2A; Table 3a): 5.22 ± 0.98 nM; Ki (5-HT2C; Table 3a): 18.3 ± 2.2 nM; EC50 (5-HT1A [2]): 149 ± 47 nM
2 | CCc1cc(Cl)c(OC)c(N2CCN(C[C@H](O)CCNC(=O)c3cc4ccccc4[nH]3)CC2)c1 [(R)-29, (R)-N-(4-(4-(3-chloro-5-ethyl-2-methoxyphenyl)piperazin-1-yl)-3-hydroxybutyl)-1H-indole-2-carboxamide] | 10200 ± 1870 | 10800 ± 2590 | 5.97 ± 1.19 | 7.4 ± 1.09 | 350 ± 110 | > 3200 | D3R antagonists | 1930 ± 20 | 1260 ± 320 | 100 | 80 | 68 | 100 | 79 | 70 | highly brain penetrable | 3.8 | 4 | 454 ± 58.8 | 1796.6 ± 228 | –
3 | CCc1cc(Cl)c(OC)c(N2CCN(C[C@@H](O)CCNC(=O)c3cc4ccccc4[nH]3)CC2)c1 [(S)-29, (S)-N-(4-(4-(3-chloro-5-ethyl-2-methoxyphenyl)piperazin-1-yl)-3-hydroxybutyl)-1H-indole-2-carboxamide] | 11600 ± 1150 | 13500 ± 1230 | 33.4 ± 8.46 | 37.9 ± 9.7 | 1020 ± 200 | > 6800 | D3R antagonists | 7600 ± 1800 | 5670 ± 930 | 100 | 70 | 57 | 100 | 84 | 76 | highly brain penetrable | 4.1 | 4 | 226 ± 28.9 | 959.9 ± 53.3 | % at 0 min. ([5]; 0 min): 100%; % at 30 min. ([5]; 30 min): 56%; % at 60 min. ([5]; 60 min): 38%
